Experimental data: the NIST ThermoML archive (doi:10.1016/j.jct.2014.05.020)

Test: excess molar enthalpy (molar enthalpy of mixing); xn = mol fraction of the nth substance listed
Settings: Liquid, Flow calorimetry

CCO [ethanol] + O
excess molar enthalpy [kcal/mol]
Settings | 423.2 K | 523.2 K
5000 kPa, x2 = 0.1473 | 0.0939 | –
5000 kPa, x2 = 0.2673 | 0.159 | –
5000 kPa, x2 = 0.4508 | 0.215 | –
5000 kPa, x2 = 0.5845 | 0.218 | –
5000 kPa, x2 = 0.6864 | 0.196 | –
5000 kPa, x2 = 0.7665 | 0.164 | –
5000 kPa, x2 = 0.8312 | 0.128 | –
5000 kPa, x2 = 0.8845 | 0.0917 | –
5000 kPa, x2 = 0.9292 | 0.0569 | –
5000 kPa, x2 = 0.9673 | 0.0255 | –
15000 kPa, x2 = 0.1466 | 0.0918 | 0.188
15000 kPa, x2 = 0.2662 | 0.156 | 0.304
15000 kPa, x2 = 0.4493 | 0.215 | 0.401
15000 kPa, x2 = 0.5831 | 0.218 | 0.41
15000 kPa, x2 = 0.6851 | 0.197 | 0.373
15000 kPa, x2 = 0.7655 | 0.166 | 0.322
15000 kPa, x2 = 0.8304 | 0.13 | 0.261
15000 kPa, x2 = 0.8839 | 0.0937 | 0.198
15000 kPa, x2 = 0.9289 | 0.0584 | 0.131
15000 kPa, x2 = 0.9671 | 0.0263 | 0.0634
